# Tested on: Plasmodium berghei strain 676c11 (PbGFP-Luc)
# Assay: In vivo rodent malaria model
# Details: female Wistar rats, 6 mg/kg orally three times a day, day 5-8
# Source text: Female mice (C57 Black 6, 9-10 weeks of age at the start of the experiment) and female rats (Wistar, 150-200 grams at the beginning of the experiment) were housed under standard conditions and experiments were approved by the institutional ethical committee on animal care and experimentation of Radboud University Medical Centre (Nijmegen).
# To test our compounds in an in vivo malaria model we used a well described rodent malaria model (Zuckerman and Yoeli, J Infect Dis. 94, 225-36). First, donor mice were infected by 0.2 ml cryopreserved infected blood stocks containing the transgenic Plasmodium berghei strain 676c11 (PbGFP-Luc). After four days the mice were sacrificed and their blood was collected. The parasitemia in the blood from the mice was calculated as percentage of infected red blood cells (RBC) by Giemsa-stained blood smears. Infected blood was diluted to 5×10^7 parasites per ml and 0.2 ml was i.p. injected in rats (inoculation of 10′ parasites per rat). Treatment with chloroquine (6 mg/kg), CXP18.6-017 (100 mg/kg) and CXP18.6-052 (100 mg/kg) started 5 days post inoculation and where given orally three times a day until day eight. From day 5 blood samples were collected and parasitemia was determined by analysis of Giemsa-stained blood smears. The infection and treatment regimes were well tolerated by the animals.
smiles,measurement,value
"CCN(CC)CCCC(C)Nc1ccnc2cc(Cl)ccc12 (stereo not shown) [chloroquine, reference compound]",parasitemia,reduced parasitemia to nearly undetectable levels within 3 days
